The species named for experiment [1] is Cavia porcellus. Briefly: Percent stimulation of [35S]GTP-gamma-S, binding by the compound (10 uM) in guinea pig caudate membranes for unblocked condition. It counts as functional. Background: GTPγS resists hydrolysis and so accumulates on activated G proteins.
Experiment [2] is filed under the species Cavia porcellus. Briefly: Percent stimulation of [35S]GTP-gamma-S, binding by the compound in guinea pig caudate membranes for unblocked condition. Type of experiment: functional, organism-based.

With `CCN(CC)C(=O)c1ccc(N(c2cccc(OC)c2)[C@H]2C[C@H]3CC[C@@H](C2)N3CC=C(C)C)cc1`, the Stimulation in the experiment listed under Cavia porcellus [1] was found to be 29%.
In turn, `C/C=C\CN1C2CCC1CC(N(c1ccc(C(=O)N(CC)CC)cc1)c1cccc(OC)c1)C2` (stereo not given) registered a Stimulation in the experiment listed under Cavia porcellus [1] of 37%.
On the same count and under the same terms, with `C=CCN1[C@@H]2CC[C@H]1C[C@@H](N(c1ccc(C(=O)N(CC)CC)cc1)c1cccc(O)c1)C2` the figure was 79%.
With `C=CCN1C[C@H](C)N([C@H](c2ccc(C(=O)N(CC)CC)cc2)c2cccc(OC)c2)C[C@H]1C`, the Stimulation in the experiment filed under Cavia porcellus [2] amounted to 102%.
In the experiment listed under Cavia porcellus [1], `C=CCN1[C@@H]2CC[C@H]1C[C@@H](N(c1ccc(C(=O)N(CC)CC)cc1)c1cccc(OC)c1)C2` displayed a Stimulation of 46%.
